Data from PMC10049026, “In Silico Binding of 2-Aminocyclobutanones to SARS-CoV-2 Nsp13 Helicase and Demonstration of Antiviral Activity” (International Journal of Molecular Sciences, 2023).
Where two headings read alike, the source gives them in different places.

How the values were obtained:
[1] = tested on: SARS-CoV-2; conditions: cited from earlier work
[2] = biological target: Helicase (NSP13); conditions: cited from earlier work
[3] = read-out: Tox CC50, cited from earlier work
[4] = tested on: SARS-CoV-2; experiment: Cell survival following SARS-CoV-2 challenge; format: cell-based
[5] = tested on: wild-type (alpha strain, SARS-CoV-2, USA-WA1/2020) SARS-CoV-2; experiment: Inhibition of SARS-CoV-2 mediated cell death, wild type (dose response); format: cell-based
[6] = tested on: Vero cell line
[7] = tested on: SARS-CoV-2; set-up: method as in Ref11; conditions: in vivo (Sirian hamster); ref Ref11; cited from earlier work
[8] = Severe acute respiratory syndrome coronavirus 2, wild-type (alpha strain, USA-WA1/2020), read-out: IC50 Values For inhibition of SARS-CoV-2 Mediated Cell Death, Wild Type
[9] = Severe acute respiratory syndrome coronavirus 2, Vero, read-out: IC50, dose response anti-viral testing (Figure 4), alpha strain USA-WA1/2020, legend names Vero cells
[10] = wild-type (alpha strain, USA-WA1/2020), read-out: IC50 Values For inhibition of SARS-CoV-2 Mediated Cell Death, Wild Type

Compound: O=C1O[C@H]2[C@@H]3OC(=O)c4cc(O)c(O)c(O)c4-c4c(O)c(O)c5oc(=O)c6c(c(O)c(O)c7oc(=O)c4c5c76)-c4c(cc(O)c(O)c4O)C(=O)OC[C@H]3OC(O)[C@@H]2OC(=O)c2cc(O)c(O)c(O)c2-c2c1cc(O)c(O)c2O (mixture of isomers) [Punicalagin]
- IC50 ([1]; in vitro assay, ref Ref5, read-out: Antiviral activity IC50): 0.347 µM
- IC50 ([2]; Enzyme assay, ref Ref5): 0.43 µM
- CC50 ([3]; ref Ref5): 33.9 µM

Compound: Cc1ccc(S(=O)(=O)N[C@@H](Cc2ccccc2)C(=O)NC2CCC2=O)cc1 (stereo partly drawn) [Compound 1, (2S)-2-((4-Methylphenyl)sulfonamido)-N-(2-oxocyclobutyl)-3-phenylpropanamide]
- Cell Survival following SARS-CoV-2 Challenge ([4]; 5 µM inhibitor concentration): 39.3
- Cell Survival following SARS-CoV-2 Challenge ([4]; 50 µM inhibitor concentration): 49.8
- IC50 [5, 8]: 15.4 µM

Compound: O=C(N[C@H](Cc1ccccc1)C(=O)NC1CCC1=O)OCc1ccccc1 (stereo partly drawn) [Compound 2, Benzyl ((2R)-1-oxo-1-((2-oxocyclobutyl)amino)-3-phenylpropan-2-yl) carbamate]
- Cell Survival following SARS-CoV-2 Challenge ([4]; 5 µM inhibitor concentration): 24.2
- Cell Survival following SARS-CoV-2 Challenge ([4]; 50 µM inhibitor concentration): 34.7
- cell survival ([4]; at 5 µM): 24.2%
- toxicity / growth inhibition of Vero cell line [6]: some inhibitory effect on Vero cell line growth
- IC50 [5, 9]: 20.3 ± 14.4 µM
- IC50 [5, 8]: 6.89 µM

Compound: CC(C)[C@H](NC(=O)OCc1ccccc1)C(=O)NC1CCC1=O (stereo partly drawn) [Compound 3, Benzyl ((2S)-3-methyl-1-oxo-1-((2-oxocyclobutyl)amino)butan-2-yl) carbamate]
- Cell Survival following SARS-CoV-2 Challenge ([4]; 5 µM inhibitor concentration): 37.9
- Cell Survival following SARS-CoV-2 Challenge ([4]; 50 µM inhibitor concentration): 54.9
- IC50 [5, 9]: 15.1 ± 8.22 µM
- IC50 [5, 8]: 13.1 µM

Compound: Cc1ccc(S(=O)(=O)N[C@@H](Cc2c[nH]c3ccccc23)C(=O)NC2CCC2=O)cc1 (stereo partly drawn) [Compound 4, (2S)-3-(1H-Indol-3-yl)-2-((4-methylphenyl)sulfonamido)-N-(2-oxocyclobutyl)propanamide]
- Cell Survival following SARS-CoV-2 Challenge ([4]; 5 µM inhibitor concentration): 54.3
- Cell Survival following SARS-CoV-2 Challenge ([4]; 50 µM inhibitor concentration): 70.9
- toxicity / growth inhibition of Vero cell line [6]: least toxic against the Vero cell line
- IC50 [5, 9]: 13.2 ± 2.35 µM
- IC50 ([5]; Severe acute respiratory syndrome coronavirus 2, read-out: IC50 Values For inhibition of SARS-CoV-2 Mediated Cell Death, Wild Type, wild-type (alpha strain, USA-WA1/2020)): 6.7 µM
- IC50 [5, 10]: 13 µM

Compound: Cc1ccc(S(=O)(=O)N[C@@H](Cc2ccccc2)C(=O)NCC2(O)CC2)cc1 [Compound 5, (S)-N-((1-hydroxycyclopropyl)methyl)-2-((4-methylphenyl)sulfonamido)-3-phenylpropanamide]
- Cell Survival following SARS-CoV-2 Challenge ([4]; 5 µM inhibitor concentration): 30.0
- Cell Survival following SARS-CoV-2 Challenge ([4]; 50 µM inhibitor concentration): 30.7

Compound: Cc1ccc(S(=O)(=O)N[C@H](Cc2ccccc2)C(=O)NC2CCC2=O)cc1 (stereo partly drawn) [Compound 6, (2R)-2-((4-Methylphenyl)sulfonamido)-N-(2-oxocyclobutyl)-3-phenylpropanamide]
- Cell Survival following SARS-CoV-2 Challenge ([4]; 5 µM inhibitor concentration): 26.6
- Cell Survival following SARS-CoV-2 Challenge ([4]; 50 µM inhibitor concentration): 35.9

Compound: O=C(N[C@@H](Cc1ccc(O)cc1)C(=O)NC1CCC1=O)OCc1ccccc1 (stereo partly drawn) [Compound 7, Benzyl ((2S)-3-(4-hydroxyphenyl)-1-oxo-1-((2-oxocyclobutyl)amino)propan-2-yl) carbamate]
- Cell Survival following SARS-CoV-2 Challenge ([4]; 5 µM inhibitor concentration): -2
- Cell Survival following SARS-CoV-2 Challenge ([4]; 50 µM inhibitor concentration): 28.1

Compound: O=C(N[C@@H](Cc1ccccc1)C(=O)NC1CCC1=O)OCc1ccccc1 (stereo partly drawn) [Compound 9, Benzyl ((2S)-1-oxo-1-((2-oxocyclobutyl)amino)-3-phenylpropan-2-yl) carbamate]
- Cell Survival following SARS-CoV-2 Challenge ([4]; 5 µM inhibitor concentration): 41.6
- Cell Survival following SARS-CoV-2 Challenge ([4]; 50 µM inhibitor concentration): 57.5
- IC50 [5, 9]: 8.53 ± 5.15 µM

Compound: Cc1ccc(S(=O)(=O)N[C@@H](Cc2ccccc2)C(=O)NCC(C)(C)O)cc1 [Compound 10, (S)-N-(2-hydroxy-2-methylpropyl)-2-((4-methylphenyl)sulfonamido)-3-phenylpropanamide]
- Cell Survival following SARS-CoV-2 Challenge ([4]; 5 µM inhibitor concentration): 36.7
- Cell Survival following SARS-CoV-2 Challenge ([4]; 50 µM inhibitor concentration): 59.2
- toxicity / growth inhibition of Vero cell line [6]: some inhibitory effect on Vero cell line growth
- IC50 [5, 9]: 6.95 ± 1.95 µM
- IC50 [5, 8]: 6.68 µM

Compound: CCN(CC)C(=S)SSC(=S)N(CC)CC [Disulfiram]
- IC50 ([1]; in vitro assay, ref Ref10, read-out: Antiviral activity IC50): 3.18 µM
- IC50 ([2]; Enzyme and in vitro assay, ref Ref10): 0.41 µM

Compound: O=C(N/N=C/c1cc(O)c(O)cc1O)c1cc2ccccc2cc1O [Dyngo-4a]
- IC50 ([2]; Enzyme assay, ref Ref5): 0.63 µM

Compound: C=C[C@@H]1C[C@]1(NC(=O)[C@@H]1C[C@@H]2CN1C(=O)[C@H](C(C)(C)C)NC(=O)O[C@@H]1C[C@H]1CCCCCc1nc3ccc(OC)cc3nc1O2)C(=O)NS(=O)(=O)C1CC1 [Grazoprevir]
- IC50 ([1]; in vitro assay, ref Ref6, read-out: Antiviral activity IC50): 1.41 µM

Compound: Oc1cc(O)c2c(c1)O[C@H](c1cc(O)c(O)c(O)c1)[C@H](O)[C@H]2c1c(O)cc(O)c2c1O[C@H](c1cc(O)c(O)c(O)c1)[C@H](O)[C@H]2c1c(O)cc(O)c2c1O[C@H](c1cc(O)c(O)c(O)c1)[C@H](O)C2 [Katacine]
- IC50 ([2]; Enzyme assay, ref Ref5): 5.98 µM

Compound: CC(C)[C@H](NC(=O)CCCCCN1C(=O)C=CC1=O)C(=O)N[C@@H](CCCNC(N)=O)C(=O)Nc1ccc(COC(=O)Oc2ccc([N+](=O)[O-])cc2)cc1 [MC-Val-Cit-PABC-PNP]
- IC50 ([2]; Enzyme assay, ref Ref5): 2.45 µM

Compound: CNC(=C[N+](=O)[O-])NCCSCc1ccc(CN(C)C)o1.O=C([O-])CC(O)(CC(=O)[O-])C(=O)[O-].[Bi+3] [Ranitidine bismuth citrate]
- viral load redn in Animal lungs & nasal turbinate [7]: 1 to 1.5 log
- IC50 ([2]; In vitro & in vivo, ref Ref11, read-out: Enzyme Assay IC50): 0.69 µM
- CC50 ([3]; ref Ref11): 3250 µM

Compound: CC(C)c1cc2c(c(O)c1O)[C@@]13CCCC(C)(C)[C@@H]1[C@H](OC3=O)[C@H]2O [Rosmanol]
- IC50 ([2]; Enzyme assay, ref Ref5): 8.93 µM

Compound: C=CCn1c(CSc2ccccc2[N+](=O)[O-])n[nH]c1=S [SSYA10-001]
- CC50 ([3]; In vitro, ref Ref4): 80.5 µM

Compound: O=C(O)CSc1cc(NS(=O)(=O)c2ccc(Br)cc2)c2ccccc2c1O [UMI-77]
- IC50 ([2]; Enzyme assay, ref Ref5): 4.38 µM

Compound: COc1cc(C(=O)NS(=O)(=O)c2ccccc2C)ccc1Cc1cn(C)c2ccc(NC(=O)OC3CCCC3)cc12 [Zafirlukast]
- IC50 ([2]; Enzyme assay, ref Ref7): 16.3 µM

Compound: O=C([O-])c1cc(=O)[nH]c(=O)[nH]1.O=C([O-])c1cc(=O)[nH]c(=O)[nH]1.[Zn+2] [Zinc Orotate]
- IC50 ([2]; Enzyme assay, ref Ref5): 4.12 µM

Compound: COc1ccc2cc1Oc1ccc(cc1)C[C@H]1c3c(cc4c(c3Oc3cc5c(cc3OC)CCN(C)[C@@H]5C2)OCO4)CCN1C [cepharanthine]
- IC50 ([1]; read-out: IC50, anti-SARS-CoV-2 activity): 400 µM

Compound: CC(C)=CCc1c(O)cc(O)c2c(=O)cc(-c3ccc(O)cc3)oc12 [licoflavone C]
- IC50 ([2]; Enzyme assay, ref Ref8): 1.34 µM

Compound: (2R)-2-((4-Methoxyphenyl) sulfonamido)-3-methyl-N-(2-oxocyclobutyl) butanamide [Compound 8]
- Cell Survival following SARS-CoV-2 Challenge ([4]; 5 µM inhibitor concentration): 32.0
- Cell Survival following SARS-CoV-2 Challenge ([4]; 50 µM inhibitor concentration): 49.1
- IC50 [5, 10]: 13.7 µM

Compound: FPA124
- IC50 ([1]; ref Ref9, read-out: Antiviral activity IC50): 14 µM
- IC50 ([2]; Enzyme assay, ref Ref9): 8.5 µM

Compound: Tannic acid
- IC50 ([2]; Enzyme assay, ref Ref5): 1.25 µM
